# According to patent US9708314B2, “Heterocyclic amide compound” (NISSAN CHEMICAL INDUSTRIES, LTD., priority 2013, dated 2017):
# Key:
# Type in all cases: in vivo
# [1] = test system: directly sowed Oryza sativa; assay: Test Example 3: effect on crop by application to foliage (Wagner pot, water depth 0.1-0.5 cm); conditions: Nineteenth Table; application to foliage; application herbicide amount 320 g/ha
# Source text: 5 Herbicidal ratio of 90% or more (almost completely withered) 4 Herbicidal ratio of 70% or more and less than 90% 3 Herbicidal ratio of 40% or more and less than 70% 2 Herbicidal ratio of 20% or more and less than 40% 1 Herbicidal ratio of 5% or more and less than 20% 0 Herbicidal ratio of 5% or less (almost no effect) [Test Example 3] Herbicidal Effect Test by Application to Foliage After alluvial soil was placed into 1/10000 are of Wagner pot, water was poured and mixed to form a condition having a water depth of 0.1 cm to 0.5 cm. Seeds of Echinochloa crus-galli var. crus-galli, Leptochloa chinensis, Cyperus difformis, and Oryza sativa were sowed and the pot was placed in the greenhouse of 25° C. to 30° C. to grow the plants. After the plants were grown for 14 days, the emulsion agent containing the compound of the present invention prepared in accordance with Formulation Example 2 was diluted with water so as to be a predetermined herbicide amount and the diluted compound was uniformly applied to a stem and leaf part with a small-size spray. Three weeks after the herbicide application, effects on each plant were investigated in accordance with the criteria of Test Example 1. A: Echinochloa oryzicola Vasing., B: Scirpus juncoides, C: Monochoria vaginalis, D: Leptochloa chinensis, E: Cyperus difformis, F: Digitaria ciliaris, G: Setaria viridis, H: Echinochloa crus-galli var. crus-galli, I: Avena fatua, J: Alopecurus myosuroides, K: Lolium multiflorum Lam., L: Apera spica-venti., M: Abutilon theophrasti, N: Amaranthus retroflexus, O: Chenopodium album, P: Stellaria media, Q: Galium spurium, R: Veronica persica, a: transplanted Oryza sativa, b: directly sowed Oryza sativa, c: Zea mays, d: Glycine max, e: Triticum aestivum, f: Beta vulgaris ssp. vulgaris, and g: Brassica campestris L. The application herbicide amount (g/ha) means an amount that a concentration is adjusted so that, when an application amount is converted into per hectare (1 ha), the herbicide is applied by the number of grams (g) of the described value.
# [2] = test system: Leptochloa chinensis; assay: Test Example 3: herbicidal effect by application to foliage (Wagner pot, water depth 0.1-0.5 cm); conditions: Nineteenth Table; application to foliage; application herbicide amount 320 g/ha
# Method in brief: (§1)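 Seeds were sown in alluvial soil in Wagner pots, grown for 14 days at 25–30 °C, then sprayed uniformly on foliage with the emulsified compound diluted to a given rate per hectare. Injury was graded three weeks after treatment from 0 (≤5%) to 5 (≥90%).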
# [3] = test system: Echinochloa crus-galli var. crus-galli; assay: as above; conditions: Nineteenth Table; application to foliage; application herbicide amount 320 g/ha
# Method in brief: as §1
# [4] = test system: Galium spurium; assay: Test Example 4: herbicidal effect by application to foliage (diluvial soil, plastic box); conditions: application to foliage, application herbicide amount 320 g/ha
# Source text: (§2) 5 Herbicidal ratio of 90% or more (almost completely withered) 4 Herbicidal ratio of 70% or more and less than 90% 3 Herbicidal ratio of 40% or more and less than 70% 2 Herbicidal ratio of 20% or more and less than 40% 1 Herbicidal ratio of 5% or more and less than 20% 0 Herbicidal ratio of 5% or less (almost no effect) [Test Example 4] Herbicidal Effect Test by Application to Foliage Sterilized diluvial soil was placed in a plastic box having a length of 21 cm, a width of 13 cm, and a depth of 7 cm. Each of the seeds of Digitaria ciliaris, Setaria viridis, Echinochloa crus-galli var. crus-galli, Avena fatua, Alopecurus myosuroides, Lolium multiflorum Lam., Apera spica-venti., Abutilon theophrasti, Amaranthus retroflexus, Chenopodium album, Stellaria media, Galium spurium, Veronica persica, Zea mays, Glycine max, Oryza sativa, Triticum aestivum, Beta vulgaris ssp. vulgaris, and Brassica campestris L. was sowed in a spot-like manner and was covered with the soil of about 1.5 cm thick. Thereafter, the plants were grown in the greenhouse of 25° C. to 30° C. After the plants were grown for 14 days, the emulsion agent containing the compound of the present invention prepared in accordance with Formulation Example 2 was diluted with water so as to be a predetermined herbicide amount and the diluted compound was uniformly applied to a stem and leaf part with a small-size spray. Three weeks after the herbicide application, effects on each plant were investigated in accordance with the criteria of Test Example 1. A: Echinochloa oryzicola Vasing., B: Scirpus juncoides, C: Monochoria vaginalis, D: Leptochloa chinensis, E: Cyperus difformis, F: Digitaria ciliaris, G: Setaria viridis, H: Echinochloa crus-galli var. crus-galli, I: Avena fatua, J: Alopecurus myosuroides, K: Lolium multiflorum Lam., L: Apera spica-venti., M: Abutilon theophrasti, N: Amaranthus retroflexus, O: Chenopodium album, P: Stellaria media, Q: Galium spurium, R: Veronica persica, a: transplanted Oryza sativa, b: directly sowed Oryza sativa, c: Zea mays, d: Glycine max, e: Triticum aestivum, f: Beta vulgaris ssp. vulgaris, and g: Brassica campestris L. The application herbicide amount (g/ha) means an amount that a concentration is adjusted so that, when an application amount is converted into per hectare (1 ha), the herbicide is applied by the number of grams (g) of the described value.
# [5] = test system: Abutilon theophrasti; assay: as above; conditions: application to foliage, application herbicide amount 320 g/ha
# Source text: as §2
# [6] = test system: Veronica persica; assay: as above; conditions: application to foliage, application herbicide amount 320 g/ha
# Source text: as §2
# [7] = test system: Apera spica-venti.; assay: as above; conditions: application to foliage, application herbicide amount 320 g/ha
# Source text: as §2
# [8] = test system: Amaranthus retroflexus; assay: as above; conditions: application to foliage, application herbicide amount 320 g/ha
# Source text: as §2
# [9] = test system: Digitaria ciliaris; assay: as above; conditions: application to foliage, application herbicide amount 320 g/ha
# Source text: as §2
# [10] = test system: Setaria viridis; assay: as above; conditions: application to foliage, application herbicide amount 320 g/ha
# Source text: as §2
# [11] = test system: Lolium multiflorum Lam.; assay: as above; conditions: application to foliage, application herbicide amount 320 g/ha
# Source text: as §2
# [12] = test system: Chenopodium album; assay: as above; conditions: application to foliage, application herbicide amount 320 g/ha
# Source text: as §2
# [13] = test system: Avena fatua; assay: as above; conditions: application to foliage, application herbicide amount 320 g/ha
# Source text: as §2
# [14] = test system: Alopecurus myosuroides; assay: as above; conditions: application to foliage, application herbicide amount 320 g/ha
# Source text: as §2
# [15] = test system: Stellaria media; assay: as above; conditions: application to foliage, application herbicide amount 320 g/ha
# Source text: as §2
# [16] = test system: Echinochloa crus-galli var. crus-galli; assay: as above; conditions: application to foliage, application herbicide amount 320 g/ha
# Source text: as §2
# [17] = test system: Beta vulgaris ssp. vulgaris; assay: Test Example 4: effect on crop by application to foliage (diluvial soil, plastic box); conditions: application to foliage, application herbicide amount 320 g/ha
# Method in brief: (§3)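 Greenhouse plants (25° C. to 30° C., 14 d, diluvial soil) receive a foliar spray of water-diluted emulsifiable formulation at defined g/ha. Grading after 3 weeks uses a six-step herbicidal-ratio scale, with 4 covering 70% to <90% and 1 covering 5% to <20%.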
# [18] = test system: Brassica campestris L.; assay: as above; conditions: application to foliage, application herbicide amount 320 g/ha
# Method in brief: as §3
# [19] = test system: Glycine max; assay: as above; conditions: application to foliage, application herbicide amount 320 g/ha
# Method in brief: as §3
# [20] = test system: Triticum aestivum; assay: as above; conditions: application to foliage, application herbicide amount 320 g/ha
# Method in brief: as §3
# [21] = test system: Zea mays; assay: as above; conditions: application to foliage, application herbicide amount 320 g/ha
# Method in brief: as §3
# [22] = test system: directly sowed Oryza sativa; assay: as above; conditions: application to foliage, application herbicide amount 320 g/ha
# Method in brief: as §3
SMILES,b (effect on crop grade) [1],D (herbicidal effect grade) [2],H (herbicidal effect grade) [3],Q: herbicidal effect on Galium spurium [4],M: herbicidal effect on Abutilon theophrasti [5],R: herbicidal effect on Veronica persica [6],L: herbicidal effect on Apera spica-venti. [7],N: herbicidal effect on Amaranthus retroflexus [8],F: herbicidal effect on Digitaria ciliaris [9],G: herbicidal effect on Setaria viridis [10],K: herbicidal effect on Lolium multiflorum Lam. [11],O: herbicidal effect on Chenopodium album [12],I: herbicidal effect on Avena fatua [13],J: herbicidal effect on Alopecurus myosuroides [14],P: herbicidal effect on Stellaria media [15],H: herbicidal effect on Echinochloa crus-galli var. crus-galli [16],"f: effect on crop, Beta vulgaris ssp. vulgaris [17]","g: effect on crop, Brassica campestris L. [18]","d: effect on crop, Glycine max [19]","e: effect on crop, Triticum aestivum [20]",other results
Cc1nnc(NC(=O)c2ccc(C(F)(F)F)n3c(C4CC=CCC4)nnc23)o1 (centres unmarked) [1-170],1 (Herbicidal ratio of 5% or more and less than 20%),4 (Herbicidal ratio of 70% or more and less than 90%),2 (Herbicidal ratio of 20% or more and less than 40%),2 (Herbicidal ratio of 20% or more and less than 40%),3 (Herbicidal ratio of 40% or more and less than 70%),4 (Herbicidal ratio of 70% or more and less than 90%),1 (Herbicidal ratio of 5% or more and less than 20%),3 (Herbicidal ratio of 40% or more and less than 70%),4 (Herbicidal ratio of 70% or more and less than 90%),3 (Herbicidal ratio of 40% or more and less than 70%),1 (Herbicidal ratio of 5% or more and less than 20%),5 (Herbicidal ratio of 90% or more (almost completely withered)),1 (Herbicidal ratio of 5% or more and less than 20%),0 (Herbicidal ratio of 5% or less (almost no effect)),4 (Herbicidal ratio of 70% or more and less than 90%),4 (Herbicidal ratio of 70% or more and less than 90%),5 (Herbicidal ratio of 90% or more (almost completely withered)),3 (Herbicidal ratio of 40% or more and less than 70%),2 (Herbicidal ratio of 20% or more and less than 40%),0 (Herbicidal ratio of 5% or less (almost no effect)),"c: effect on crop, Zea mays [21]: 0 (Herbicidal ratio of 5% or less (almost no effect)); b: effect on crop, directly sowed Oryza sativa [22]: 0 (Herbicidal ratio of 5% or less (almost no effect))"
"CCN(C(=O)c1ccc(C(F)(F)F)n2c(C3(C)CC3(Cl)Cl)nnc12)c1nnc(C)o1 (centres unmarked) [1-174, 3-(2,2-Dichloro-1-methylcyclopropyl)-N-ethyl-N-(5-methyl-1,3,4-oxadiazol-2-yl)-5-(trifluoromethyl)-[1,2,4]triazolo[4,3-a]pyridine-8-carboxamide]",0 (Herbicidal ratio of 5% or less (almost no effect)),2 (Herbicidal ratio of 20% or more and less than 40%),2 (Herbicidal ratio of 20% or more and less than 40%),3 (Herbicidal ratio of 40% or more and less than 70%),0 (Herbicidal ratio of 5% or less (almost no effect)),3 (Herbicidal ratio of 40% or more and less than 70%),0 (Herbicidal ratio of 5% or less (almost no effect)),4 (Herbicidal ratio of 70% or more and less than 90%),0 (Herbicidal ratio of 5% or less (almost no effect)),0 (Herbicidal ratio of 5% or less (almost no effect)),0 (Herbicidal ratio of 5% or less (almost no effect)),5 (Herbicidal ratio of 90% or more (almost completely withered)),0 (Herbicidal ratio of 5% or less (almost no effect)),0 (Herbicidal ratio of 5% or less (almost no effect)),3 (Herbicidal ratio of 40% or more and less than 70%),0 (Herbicidal ratio of 5% or less (almost no effect)),4 (Herbicidal ratio of 70% or more and less than 90%),0 (Herbicidal ratio of 5% or less (almost no effect)),0 (Herbicidal ratio of 5% or less (almost no effect)),0 (Herbicidal ratio of 5% or less (almost no effect)),"c: effect on crop, Zea mays [21]: 0 (Herbicidal ratio of 5% or less (almost no effect)); b: effect on crop, directly sowed Oryza sativa [22]: 0 (Herbicidal ratio of 5% or less (almost no effect))"
